From US4048328A, “Alkyl derivatives of 4,5-dehydro PGF1” (American Home Products Corporation, priority 1976, dated 1977)
Where two headings read alike, the source gives them in different places.

Experiments:
mated hamsters = test: abortifacient test in mated hamsters (Labhsetwar); assay type: in vivo, hamster; conditions: Mesocricetus auratus, sc
Description: Furthermore, when the compounds of this invention are tested by the method of A. P. Labhsetwar, Nature 230, 528 (1971) whereby the compound is given subcutaneously on a daily basis to mated hamsters on days 4, 5 and 6 of pregnancy, thereafter the animals being sacrificed on day 7 of pregnancy and the number of abortions counted, the compounds are shown to have abortifacient properties.

[1] = system: secretion of gastric acid; test: inhibition of gastric acid secretion in rats (Shay et al.); assay type: in vivo; conditions: po; orally, rat
Description: For example, when trans,cis-7-[2-(3-hydroxy-4,4-dimethyl-1-octenyl)-5-oxocyclopentyl]-5-heptanoic acid (Example 68) is given orally to the rat according to the aforementioned method, an ED50 of about 1.0 mg/kg is obtained for the compound.

horse = test: synchronization of estrus and regulation of ovulation in the horse; assay type: in vivo; conditions: given on second and third day before expected estrus; rectal palpation
Description: It is often desirable to synchronize estrus in domestic animals, for example, horses, cattle, sheep, swine or dogs, in order to be able to perform artificial insemination or mating with a male of the desired genetic quality under optimum conditions. In the past, this has been done by administering to the animals an ovulation-inhibiting agent, withdrawing administration of said agent shortly before the date chosen for mating or artificial insemination, and relying either upon the natural production of LH and FSH to induce ovulation and to produce estrus or by administering gonadotrophins. However, this procedure was not entirely satisfactory because ovulation at a predetermined time occured only in a certain proportion of the animals when gonadotrophins were not used. On the other hand, the high cost of gonadotrophins and side effects encountered in their administration needs this method impractical. It is now possible to obtain substantially complete synchronization of ovulation and of estrus, by treating the animals in a given group with the compound of formula 1 before the predetermined period of time for mating or artificial insemination, so as to obtain ovulation and estrus within that time interval. The delay in the onset of ovulation and estrus following administration of the compound of this invention varies with the species of animal. […]

[2] = system: histamine-induced bronchoconstriction; test: histamine-induced bronchoconstriction in the anesthetized guinea pig (Greenberg and Beaulieu); assay type: in vivo
Description: (§1) Maximal effect was seen within 3 minutes after 10 μg/kg and returned to the control level within 50 minutes. Hypotension of short duration (1 - 2 minutes) occurred following this mode of administration. […] Maximal effect was seen within 3 minutes after 0.1 μg/kg and returned to the control level within 70 minutes.
Percentage inhibition of histamine-induced bronchoconstriction in the anesthetized guinea pig after intravenous administration of trans-7-[2-(3-hydroxy-3-methyl-1-octenyl)-5-oxocyclopentyl]heptanoic acid (Isomer B'). Each value is the mean of 8 - 12 experiments.
Percentage inhibition of histamine-induced bronchoconstriction in the anesthetized guinea pig after aerosol administration of trans-7-[2-(3-hydroxy-3-methyl-1-oxtenyl)-5-oxocyclopentyl]heptanoic acid (Isomer B'). Each value is the mean of 8 - 12 experiments.

blood pressure = blood pressure after administration in the anesthetized guinea pig; assay type: in vivo; conditions: after aerosol administration
Description: as §1

[3] = system: guinea pig tracheal strip; test: relaxation of carbachol-induced contractions of isolated guinea pig tracheal strips; conditions: for RELAXATION of tracheal strip: carbachol-contracted, mean of 12 strips
Description: The relaxation of the guinea pig tracheal strip by trans-7-[2-(3-hydroxy-3-methyl-1-octenyl)-5-oxocyclopentyl]heptanoic acid (Isomer B'). Each value is the mean of the responses of 12 strips.

gastric secretion = conditions: in vivo; cited from earlier work
pregnancy [4] = conditions: rhesus monkey; cited from earlier work
pregnancy [5] = conditions: human; cited from earlier work
[6] = basic and acidic conditions; cited from earlier work
[7] = 168 h, subcutaneous, days 4, 5 and 6 of pregnancy, sacrificed day 7, read-out: dose giving complete abortion in all animals

## CCCCCC(C)(O)/C=C/[C@H]1CCC(=O)[C@@H]1C/C=C\CCCC(=O)O (relative stereo) [trans, cis-7-[2-(3-Hydroxy-3-methyl-1-octenyl)-5-oxocyclopentyl]-5-heptenoic Acid]
Mated hamsters; [7]
  ED100: 2.5 mg/kg/day

## CCCCCC(C)(O)/C=C/[C@H]1CCC(=O)[C@@H]1CC/C=C\CCC(=O)O (relative stereo) [trans, cis-7-[2-(3-hydroxy-3-methyl-1-octenyl)-5-oxocyclopentyl]-4-heptenoic acid]
Mated hamsters; [7]
  ED100: 1 mg/kg/day

## CCCCC(C)(C)C(O)/C=C/[C@H]1CCC(=O)[C@@H]1C/C=C\CCCC(=O)O (relative stereo) [trans, cis-7-[2-(3-hydroxy-4,4-dimethyl-1-octenyl)-5-oxocyclopentyl]-5-heptenoicacid]
[1]
  ED50: ~1 mg/kg

## CCCCCC(C)(O)/C=C/[C@H]1CC[C@H](O)[C@@H]1C/C=C\CCCC(=O)O (relative stereo) [trans, cis-7-[2α-hydroxy-5-(3-hydroxy-3-methyl-1-octenyl)cyclopentyl]-5-heptenoic acid]
horse
  ovulation after estrus (majority of animals): from the fourth to the sixth day

## CCCCCC(C)(O)/C=C/[C@H]1CCC(O)[C@@H]1C/C=C\CCCC(=O)O (relative stereo) [trans, cis-7[2-hydroxy-5-(3-hydroxy-3-methyl-1-octenyl)cyclopentyl]-5-heptenoic acid]
Mated hamsters; [7]
  ED100: 0.5 mg/kg/day

## CCCCCC(C)(O)/C=C/[C@H]1CCC(=O)[C@@H]1CCCCCCC(=O)O (relative stereo) [trans-7-[2-(3-hydroxy-3-methyl-1-octenyl)-5-oxocyclopentyl]-heptanoic acid]
[2]; anesthetized guinea pig
  protection against histamine-induced bronchospasm: significant protection

## CCCCCC(C)(O)/C=C/[C@H]1CCC(=O)[C@@H]1CCCCCCC(=O)O (single isomer, unassigned) [Isomer B', trans-7-[2-(3-hydroxy-3-methyl-1-octenyl)-5-oxocyclopentyl]-heptanoic acid]
Blood pressure
  changes in the blood pressure: no notable changes in the blood pressure
[2]; Cavia porcellus, intravenous, 0.01 μg/kg, mean of 8 - 12 experiments
  inhibition at 1e-05 mg/kg: 14.8 ± 2%
[2]; Cavia porcellus, intravenous, 0.1 μg/kg, mean of 8 - 12 experiments
  inhibition at 0.0001 mg/kg: 46.4 ± 5.5%
[2]; Cavia porcellus, intravenous, 1.0 μg/kg, mean of 8 - 12 experiments
  inhibition at 0.001 mg/kg: 66 ± 5.4%
[2]; Cavia porcellus, intravenous, 10.0 μg/kg, mean of 8 - 12 experiments
  inhibition at 0.01 mg/kg: 81.9 ± 5.2%
[2]; aerosol
  inhibition of histamine-induced bronchoconstriction, dose relation: linear dose related inhibition
  times more potent than prostaglandin E2 or 11-deoxy-prostaglandin E1: 78 times
[2]; aerosol, after 0.1 μg/kg
  time of maximal effect: ≤ 3 min
  time of return to the control level: ≤ 70 min
[2]; aerosol, total dose 10^-1 μg, mean of 8 - 12 experiments
  % INHIBITION of histamine-induced bronchoconstriction: 78.1 ± 4.2%
[2]; aerosol, total dose 10^-2 μg, mean of 8 - 12 experiments
  % INHIBITION of histamine-induced bronchoconstriction: 66.8 ± 4.7%
[2]; aerosol, total dose 10^-3 μg, mean of 8 - 12 experiments
  % INHIBITION of histamine-induced bronchoconstriction: 49.3 ± 5.0%
[2]; aerosol, total dose 10^-4 μg, mean of 8 - 12 experiments
  % INHIBITION of histamine-induced bronchoconstriction: 38.6 ± 5.9%
[2]; aerosol, total dose 10^-5 μg, mean of 8 - 12 experiments
  % INHIBITION of histamine-induced bronchoconstriction: 20.9 ± 5.1%
[2]; intravenous
  inhibition of histamine-induced bronchoconstriction, dose relation: linear dose related inhibitions
  times more potent than prostaglandin E2 or 11-deoxy-prostaglandin E1: 32 times
[2]; intravenous, after 10 μg/kg
  time of maximal effect: ≤ 3 min
  time of return to the control level: ≤ 50 min
[3]; 1.0 μg/ml
  RELAXATION of tracheal strip: 0.2 ± 0.2 g
[3]; 3.0 μg/ml
  RELAXATION of tracheal strip: 0.39 ± 0.04 g
[3]; 10 μg/ml
  RELAXATION of tracheal strip: 0.79 ± 0.1 g
[3]; 30 μg/ml
  RELAXATION of tracheal strip: 1.29 ± 0.1 g
[3]; cumulative concentrations
  relaxation of the tracheal strip, dose relation: linear dose related relaxation

## CCCCCC(C)(O)CCC1CCC(=O)C1CCCCCCC(=O)O (centres unmarked) [2-(3-hydroxy-3-methyl-octyl)-5-oxocyclopentaneheptanoic acid, reference compound]
Mated hamsters; comparison with saturated 15-methyl analog, above test, read-out: dose below which complete abortion is not caused
  ED100: ≥ 30 mg/kg/day

## CCCCC[C@@](C)(O)/C=C/[C@H]1[C@H](O)CC(=O)[C@@H]1C/C=C\CCCC(=O)O [15(R)-methyl]
Gastric secretion
  effect on gastric secretion: inhibit gastric secretion

## CCCCC[C@](C)(O)/C=C/[C@H]1[C@H](O)CC(=O)[C@@H]1C/C=C\CCCC(=O)O [15(S)-methyl PGE2]
Gastric secretion
  effect on gastric secretion: inhibit gastric secretion

## CCCCC[C@](C)(O)/C=C/[C@@H]1[C@@H](C/C=C\CCCC(=O)O)[C@@H](O)C[C@H]1O [15-Methyl PGF2α]
Pregnancy [4]
  effect on pregnancy: interrupt pregnancy
Pregnancy [5]
  effect on pregnancy: interrupt pregnancy

## CCCCCC(C)(O)/C=C/[C@H]1[C@H](O)CC(=O)[C@@H]1C/C=C\CCCC(=O)OC (some centres unmarked) [15-methyl PGE2 methyl esters]
Pregnancy [4]
  effect on pregnancy: interrupt pregnancy
Pregnancy [5]
  effect on pregnancy: interrupt pregnancy

## CCCCC(C)(C)[C@H](O)/C=C/[C@H]1[C@H](O)CC(=O)[C@@H]1C/C=C\CCCC(=O)OC [16,16-dimethyl PGE2 methyl ester]
Gastric secretion
  effect on gastric secretion: effective in inhibiting gastric acid secretion

## CCCCC[C@H](O)/C=C/[C@H]1[C@H](O)CC(=O)[C@@H]1C/C=C\CCCC(=O)O [PGE2]
[6]
  dehydration of the 11-hydroxy group: participates readily in dehydration reactions
